The target of the assay is Serine/threonine-protein phosphatase PP1-alpha catalytic subunit (Homo sapiens) (UniProt P62136). Description: PP1alpha phosphatase inhibition, late-stage follow-up, selectivity assay for PP5 inhibitor project, biochemical, OMFP substrate, fluorescence, powder samples, round 5 (AID 624436). Particulars: purified PP1alpha, OMFP dephosphorylation fluorescence; at 50 µM; active compounds read high.

Calls of active or inactive are those of the source.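 How the source made its calls: active means no compound was called active, only the inactive limit is stated; inactive means inhibition below 30% at 50 µM.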

Serine/threonine-protein phosphatase PP1-alpha catalytic subunit (Homo sapiens), sequence (P62136 whole entry, looked up): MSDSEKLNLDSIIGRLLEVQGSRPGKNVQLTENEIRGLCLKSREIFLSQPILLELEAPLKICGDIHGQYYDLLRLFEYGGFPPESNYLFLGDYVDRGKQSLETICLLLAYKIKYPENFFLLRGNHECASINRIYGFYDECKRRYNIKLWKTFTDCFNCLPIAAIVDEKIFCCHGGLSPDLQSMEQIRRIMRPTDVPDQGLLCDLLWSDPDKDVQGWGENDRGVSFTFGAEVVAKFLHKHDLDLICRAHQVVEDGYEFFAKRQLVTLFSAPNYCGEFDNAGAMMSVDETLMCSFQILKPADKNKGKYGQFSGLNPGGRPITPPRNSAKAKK

Consider `CCc1ccccc1-c1n[nH]nc1C(=O)O`, for which the inhibition is 2.41% (inactive).
The figure for `CCOc1ccccc1-c1n[nH]nc1C(=O)O` is 15.5% (inactive).
As for `O=C(O)c1n[nH]nc1-c1ccccc1C(F)(F)F`, the figure is 7% (inactive); as for `O=C(O)c1n[nH]nc1-c1ccccn1`, 8.42% (inactive); as for `CC(C)Oc1ccccc1-c1n[nH]nc1C(=O)O`, 9.97% (inactive).
The figure for `CC(C)c1ccccc1-c1n[nH]nc1C(=O)O` is 3.75% (inactive); for `O=C(O)c1[nH]ccc1-c1ccccc1` it is 4.43% (inactive).
As to `O=C(O)c1n[nH]nc1-c1cccnc1`, the inhibition was 1.43% (inactive).
Regarding `Cc1cccc(C)c1-c1n[nH]nc1C(=O)O`, the inhibition was 6.84% (inactive).
In the case of `O=C(O)c1n[nH]nc1-c1ccccc1-c1ccccc1`, the inhibition is 0.415% (inactive).
The figure for `Cc1ccccc1-c1n[nH]nc1C(=O)O` is 10.4% (inactive).

Usually inhibition stands for the share of the control response that was lost under treatment.

The record behind these values is PubChem BioAssay AID624436 (The Scripps Research Institute Molecular Screening Center, 2012).
